Experimental data as given in ChEMBL document CHEMBL4118131, “Synthesis of 1,2,4-triazole-linked urea/thiourea conjugates as cytotoxic and apoptosis inducing agents” (Bioorg Med Chem Lett, 2018).

What was measured:
Format in all cases: functional, cell-based
MCF7 = assay: Cytotoxicity in human MCF7 cells assessed as reduction in cell viability incubated for 48 hrs by MTT assay; settings: MCF7, 48 h
DU-145 = assay: Cytotoxicity in human DU145 cells assessed as reduction in cell viability incubated for 48 hrs by MTT assay; settings: DU-145, 48 h
A549 = assay: Cytotoxicity in human A549 cells assessed as reduction in cell viability incubated for 48 hrs by MTT assay; settings: A549, 48 h
MDA-MB-231 = assay: Cytotoxicity in human MDA-MB-231 cells assessed as reduction in cell viability incubated for 48 hrs by MTT assay; settings: MDA-MB-231, 48 h
B16-F10 = assay: Cytotoxicity in mouse B16/F10 cells assessed as reduction in cell viability incubated for 48 hrs by MTT assay; settings: B16-F10, 48 h

Row | Compound | IC50 (MCF7) [µM] | IC50 (DU-145) [µM] | IC50 (A549) [µM] | IC50 (MDA-MB-231) [µM] | IC50 (B16-F10) [µM]
1 | O=c1[nH]cc(F)c(=O)[nH]1 [FLUOROURACIL] | 16.7 | 39.2 | – | – | –
2 | COc1ccc(CN(C(=O)Nc2ccc(C#N)cc2)n2cnnc2)cc1OC | > 50 | 24.1 | > 50 | > 50 | > 50
3 | COc1ccc(OC)c(CN(C(=S)Nc2ccc(C)cc2)n2cnnc2)c1 | > 50 | 20.9 | 17.4 | > 50 | 20.7
4 | CCCCCCCCCNC(=S)N(Cc1cc(OC)ccc1OC)n1cnnc1 | > 50 | > 50 | > 50 | > 50 | 29.4
5 | COc1ccc(CN(C(=S)Nc2cc(C(F)(F)F)cc(C(F)(F)F)c2)n2cnnc2)cc1OC | 15.5 | 26.4 | 16.2 | 25.3 | 8.54
6 | Cc1ccsc1CN(C(=O)Nc1ccc(Cl)c(C(F)(F)F)c1)n1cnnc1 | 30.1 | 24.1 | 26.2 | 29.6 | 22.1
7 | CCc1ccc(NC(=S)N(Cc2ccc(OC)c(OC)c2)n2cnnc2)cc1 | > 50 | > 50 | 28.4 | > 50 | 22.9
8 | O=C(Nc1ccccc1)N(Cc1ccccn1)n1cnnc1 | > 50 | 20.2 | 24.9 | > 50 | 23.7
9 | COc1cc(CN(C(=S)Nc2cc(C(F)(F)F)cc(C(F)(F)F)c2)n2cnnc2)cc(OC)c1OC | 23.8 | 23.1 | 21 | 24.9 | 5.62
10 | CCc1ccc(NC(=S)N(Cc2cc(OC)c(OC)c(OC)c2)n2cnnc2)cc1 | 24.8 | 21.4 | 17.2 | 24.8 | 24.7
11 | COc1ccc(CN(C(=O)Nc2ccc(Cl)c(C(F)(F)F)c2)n2cnnc2)cc1OC | > 50 | > 50 | 29.3 | > 50 | > 50
12 | Cc1ccsc1CN(C(=O)Nc1cccc(C#N)c1)n1cnnc1 | > 50 | 31 | 26 | > 50 | 28.9
13 | COc1cc(CN(C(=O)Nc2ccc(C#N)cc2)n2cnnc2)cc(OC)c1OC | > 50 | 20.6 | 20.7 | > 50 | 21
